{"source": "paper PMC10035370", "about": "“Targeting Tumor Angiogenesis with the Selective VEGFR-3 Inhibitor EVT801 in Combination with Cancer Immunotherapy” (Cancer Research Communications, 2022)", "molecules": {"B1": {"name": "VEGF-C: VEGFR-3 ligand (protein, UniProt P49767 112-227, looked up)", "Vascular endothelial growth …": "AHYNTEILKSIDNEWRKTQCMPREVCIDVGKEFGVATNTFFKPPCVSVYRCGGCCNSEGLQCMNTSTSYLSKTLFEITVPLSQGPKPVTISFANHTSCRCMSKLDVYRQVHSIIRR"}, "B2": {"name": "VEGF-D: VEGFR-3 ligand (protein, UniProt O43915 89-205, looked up)", "Vascular endothelial growth …": "FAATFYDIETLKVIDEEWQRTQCSPRETCVEVASELGKSTNTFFKPPCVNVFRCGGCCNEESLICMNTSTSYISKQLFEISVPLTSVPELVPVKVANHTGCKCLPTAPRHPYSIIRR"}}, "key": {"NCI-H1703 cells": {"system": "NCI-H1703 cells", "assay": "NCI-H1703 viability (ATP reduction)", "format": "cell-based", "conditions": "Homo sapiens, in vitro", "protocol": "NCI-H1703 were seeded in 96-well plates coated with 0.3 % gelatin (5 x 10^3 cells per well) and were incubated in RPMI 0.1 % FCS with VEGF-C (300 ng/mL) or VEGF-D (300 ng/mL) in the absence or presence of increasing doses of EVT801. After 5 days, viable cells were quantified with the cell Titer-glo luminescent cell viability assay (Promega) as previously described (1)."}, "[1]": {"system": "NCI-H1703 tumor xenografts", "assay": "NCI-H1703 subcutaneous xenograft tumor mouse model", "format": "in vivo, mice", "conditions": "30 mg/kg twice per day", "protocol": "A total number of 40 homozygous NOD.CB17 Prkdc^scid/NCrHsd mice were used for the xenograft tumor model. On the day of implantation, NCI-H1703 cells were harvested and suspended at a concentration of 1 × 10^8 cells per mL in an equal mix of Cultrex:RPMI without supplements. A volume of 100 μL was injected into the right hind flank of each animal. Tumor volumes were monitored until mean tumor volume reached 150 mm^3. Then, mice were stratified into four treatment groups of each 10 mice and orally dosed twice per day with either EVT801 30 mg/kg and EVT801 vehicle [Soluplus (BASF)/water/hydroxypropylcellulose SL (Nisso America)], or 30 mk/kg pazopanib and pazopanib vehicle (0.5% Hydroxypropyl methylcellulose trimellitate (HPMCT) + 0.1% Tween-80). A period of 8 hours was observed between the first and second daily dose."}, "RT-HAM-001 tumors": {"system": "RT-HAM-001 tumors", "assay": "RT-001-HAM subcutaneous patient-derived xenograft tumor mouse model", "format": "in vivo, mice", "conditions": "30 mg/kg twice per day, 7-day treatment", "protocol": "Patient-derived tumors of the same passage were transplanted subcutaneously outbred athymic (nu/nu) female HSD mice. When tumor volume reached 726 to 1,437 mm^3, 4 donor mice were sacrificed by cervical dislocation, and tumors were aseptically excised and dissected. After removing necrotic areas, tumor fragments of approximately 20 mm^3 were transferred to culture medium before grafting. A total of 108 mice were anesthetized with 100 mg/kg ketamine hydrochloride (Virbac) and 10 mg/kg xylazine (Bayer). Then, a tumor fragment was placed in the subcutaneous tissue of an incision at the level of the interscapular region as described previously ([30]). All mice from the same experiment were implanted on the same day. A total of 54 mice with RT-001-HAM established growing tumor (P6.0.0/0) between 62.5 and 196 mm^3 were allocated according to tumor volume, ensuring homogenous median and mean tumor volume in each treatment arm. Treatments with 5 mL/kg vehicle, 30 mg/kg EVT801, or 30 mg/kg pazopanib started 15 days after tumor implantation and continued twice per day until termination 7 days later. Tumor volumes were measured via a caliper three times a week during the treatment period. All animals were weighed at the same time as tumor size measurement. Plasma and fresh tumor samples were collected at different timepoints after final dose at day 7 from all mice."}, "DEN-induced liver tumor": {"system": "DEN-induced liver tumor", "assay": "N-diethylnitrosamine-induced hepatocarcinoma mouse model", "format": "in vivo, mice", "conditions": "30 mg/kg daily for 2 months", "protocol": "After weighing, 38 male C3/H mice received a 10 mg/kg dose of N-diethylnitrosamine (DEN) intraperitoneally, whereas a group of 5 animals was kept without DEN injection as control group. After 12 months, mice that received DEN injection were randomized by weight in two groups of each 19 animals. The mice were dosed daily orally for 2 months either with EVT801 or vehicle. On the day of termination, mice treated with EVT801 received a last dose of 30 mg/kg to take blood and tumor samples for compound concentration determination. After incision of the peritoneal cavity, blood was taken from the vena cava. Following excision and weighing of the liver, the number of tumors per liver was counted. The tumor burden was calculated as the sum of individual tumor volumes for each mouse. No blood sampling was performed on control and vehicle groups. Plasma and tumor samples were stored at −20°C until analysis. Concentration of EVT801 was determined by LC/MS-MS."}, "[2]": {"assay": "Blood pressure in telemetered rat model of hypertension", "format": "in vivo", "conditions": "single oral administration of 10, 30 or 100 mg/kg", "protocol": "Supplementary Figure 8. EVT801 and sorafenib show opposing effects on blood pressure in rats. (A) Monitoring of the blood pressure over 24 h after single oral administration of 100 mg/kg EVT801 or 500 mg/kg of EVT801, compared to animals treated with vehicle. (B) Monitoring of the blood pressure over 24 h after single oral administration of 10 mg/kg sorafenib, 30 mg/kg sorafenib or 100 mg/kg of sorafenib, compared to animals treated with vehicle."}, "hLMVEC": {"system": "hLMVEC", "assay": "Growth factor-induced hLMVEC proliferation", "format": "cell-based, human", "conditions": "stimulation by the ligand", "protocol": "hLMVEC were seeded in white cell culture-treated flat and clear bottom multi-well plates and incubated at 37 °C overnight, before compounds were added. After incubation for 72 h at 37 °C, plates were equilibrated to ambient temperature for 1 h, and CellTiterGlo reagent (Promega) was added. After approximately 1h, luminescence was measured using a luminometer. Curves were fitted via sigmoidal dose response curves, and IC50 values were determined."}}}
{"molecule": "Cc1ccc(Nc2nccc(N(C)c3ccc4c(C)n(C)nc4c3)n2)cc1S(N)(=O)=O", "note": "[pazopanib, reference compound]", "values": [{"measurement": "IC50", "setting": "NCI-H1703 cells", "value": 90, "unit": "nM"}, {"measurement": "CD31 IHC, tumor vessels", "setting": "[1]", "value": "decreased the number of vessels while increasing the proportion of larger ones"}, {"measurement": "decrease of tumor weight compared with vehicle", "setting": "[1]; endpoint", "value": 56, "unit": "%"}, {"measurement": "T/C ratio, tumor growth", "setting": "[1]; oral, vs corresponding vehicle", "value": 53, "unit": "%"}, {"measurement": "T/C ratio, tumor volume", "setting": "RT-HAM-001 tumors", "value": 77, "unit": "%"}, {"measurement": "size of necrotic areas in tumors", "setting": "RT-HAM-001 tumors", "value": "remained unaffected"}, {"measurement": "hypoxic areas (CAIX) in tumors", "setting": "RT-HAM-001 tumors; not statistically significant", "value": "showed opposing effects"}]}
{"molecule": "CNC(=O)c1cc(Oc2ccc(NC(=O)Nc3ccc(Cl)c(C(F)(F)F)c3)cc2)ccn1", "note": "[sorafenib, reference compound]", "values": [{"measurement": "T/C ratio, tumor growth", "setting": "DEN-induced liver tumor", "value": 32, "unit": "%"}, {"measurement": "liver weight", "setting": "DEN-induced liver tumor", "value": "reduced liver weight"}, {"measurement": "effect on blood pressure", "setting": "[2]", "value": "showed the opposite effect"}]}
{"molecule": "B1", "values": [{"measurement": "increase in hLMVEC proliferation", "setting": "hLMVEC", "value": 50, "unit": "%"}]}
{"molecule": "B2", "values": [{"measurement": "increase in hLMVEC proliferation", "setting": "hLMVEC", "value": 34, "unit": "%"}]}
